Values joined by “and” are separate entries in the source; they are usually repeats but may differ in a detail not shown here. Equal entries are not always repeated. Toxic doses and inconclusive results are not listed.
Test system: BDF1 mice, P388 leukemia ip, median survival T/C
Assay: NCI In Vivo Anticancer Drug Screen. Data for tumor model P388 Leukemia (intraperitoneal) in B6D2F1 (BDF1) mice
Conditions: endpoint: median survival time, higher = longer survival
Outline: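 Transplantable tumour in mice; compound vs vehicle dosing; survival scored; ratio of treated to control reported.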

[1] = dose: 100.0 mg/kg/injection, schedule: Q01DX009 (ip), vehicle: saline with Tween-80
[2] = dose: 200.0 mg/kg/injection, schedule: Q01DX009 (ip), vehicle: saline with Tween-80
[3] = dose: 50.0 mg/kg/injection, schedule: Q01DX009 (ip), vehicle: saline with Tween-80
[4] = dose: 25.0 mg/kg/injection, schedule: Q01DX009 (ip), vehicle: Klucel (hydroxypropylcellulose) (HPC)
[5] = dose: 200.0 mg/kg/injection, schedule: Q01DX009 (ip), vehicle: Klucel (hydroxypropylcellulose) (HPC)

How did the T/C [1] turn out when `CCCCCCC(O)CCCCCCCCCCC(=O)O` (centres undefined) was run?
Its T/C is 95 % of control.

What about the T/C [2] of the same compound?
The T/C was 95 % of control.

What about the T/C (dose: 400.0 mg/kg/injection, schedule: Q01DX009 (ip), vehicle: saline with Tween-80) of the same compound?
Its T/C is 100 % of control.

What does the source list for `Cn1c(=O)[nH]cc([N+](=O)[O-])c1=O`?
T/C [3]: 104 % of control; T/C [1]: 105 % of control; T/C [2]: 98 % of control

`COC(=O)c1ccc(C(=O)O)[n+]([O-])c1` was tested. Which T/C [4] did it give?
Its T/C is 96 % of control.

What about the T/C (dose: 25.0 mg/kg/injection, schedule: Q04DX003 (ip), vehicle: Klucel (hydroxypropylcellulose) (HPC)) of the same compound?
Its T/C is 100 % of control.

What about the T/C (dose: 50.0 mg/kg/injection, schedule: Q04DX003 (ip), vehicle: Klucel (hydroxypropylcellulose) (HPC)) of the same compound?
The T/C was 104 % of control.

What about the T/C (dose: 100.0 mg/kg/injection, schedule: Q01DX009 (ip), vehicle: Klucel (hydroxypropylcellulose) (HPC)) of the same compound?
The T/C was 88 % of control.

And the T/C (dose: 100.0 mg/kg/injection, schedule: Q04DX003 (ip), vehicle: Klucel (hydroxypropylcellulose) (HPC))?
Its T/C is 113 % of control.

What about the T/C [5] of the same compound?
Its T/C is 89 % of control.

And the T/C (dose: 200.0 mg/kg/injection, schedule: Q04DX003 (ip), vehicle: Klucel (hydroxypropylcellulose) (HPC))?
Its T/C is 95 % of control.

What about the T/C (dose: 400.0 mg/kg/injection, schedule: Q04DX003 (ip), vehicle: Klucel (hydroxypropylcellulose) (HPC)) of the same compound?
The T/C was 87 % of control.

With `COC(=O)c1ccc(CSc2ccccc2NC(=S)Nc2cccc(SC)c2)o1` as the compound, how does the T/C [3] read?
Its T/C is 90 % of control.

And the T/C [1]?
Its T/C is 92 % of control.

What about the T/C [2] of the same compound?
The T/C was 90 % of control.

Which T/C (dose: 0.75 mg/kg/injection, schedule: Q01DX009 (ip), vehicle: water) does the source give for `CC(C)(CO)COC(=O)NC1=C(N2CC2)C(=O)C(NC(=O)OCC(C)(C)CO)=C(N2CC2)C1=O` here?
Its T/C is 151 % of control and 157 % of control.

And the T/C (dose: 1.5 mg/kg/injection, schedule: Q01DX009 (ip), vehicle: water)?
The T/C was 159 % of control and 178 % of control.

What about the T/C (dose: 3.0 mg/kg/injection, schedule: Q01DX009 (ip), vehicle: water) of the same compound?
The T/C was 181 % of control and 200 % of control.

And the T/C (dose: 6.0 mg/kg/injection, schedule: Q01DX009 (ip), vehicle: water)?
Its T/C is 231 % of control and 205 % of control.

What about the T/C (dose: 12.0 mg/kg/injection, schedule: Q01DX009 (ip), vehicle: water) of the same compound?
The T/C was 232 % of control and 312 % of control.

How did the T/C [4] turn out when `COc1ccc2ccccc2c1C1NC(=O)c2ccccc2N1` (centres undefined) was run?
Its T/C is 115 % of control.

What about the T/C (dose: 50.0 mg/kg/injection, schedule: Q01DX009 (ip), vehicle: Klucel (hydroxypropylcellulose) (HPC)) of the same compound?
Its T/C is 100 % of control.

And the T/C [5]?
The T/C was 166 % of control.

`COc1ccc(CCCC(=O)O)cc1OC` was tested. Which T/C [3] did it give?
The T/C was 108 % of control.

What about the T/C [1] of the same compound?
Its T/C is 105 % of control.

And the T/C [2]?
The T/C was 103 % of control.

What does the source list for `CCC(=O)/C(=C\c1ccccc1Cl)C(C)=O`?
T/C [3]: 108 % of control; T/C [1]: 116 % of control; T/C [2]: 120 % of control

For `N#CC(=C=[N-])[n+]1ccccc1`, which T/C (dose: 3.12 mg/kg/injection, schedule: Q01DX009 (ip), vehicle: Klucel (hydroxypropylcellulose) (HPC)) is on record?
The T/C was 110 % of control.

What about the T/C (dose: 6.25 mg/kg/injection, schedule: Q01DX009 (ip), vehicle: Klucel (hydroxypropylcellulose) (HPC)) of the same compound?
Its T/C is 110 % of control.

And the T/C (dose: 12.5 mg/kg/injection, schedule: Q01DX009 (ip), vehicle: Klucel (hydroxypropylcellulose) (HPC))?
Its T/C is 100 % of control.

What about the T/C (dose: 18.0 mg/kg/injection, schedule: Q01DX009 (ip), vehicle: Klucel (hydroxypropylcellulose) (HPC)) of the same compound?
Its T/C is 100 % of control.

What about the T/C (dose: 28.0 mg/kg/injection, schedule: Q01DX009 (ip), vehicle: Klucel (hydroxypropylcellulose) (HPC)) of the same compound?
The T/C was 115 % of control.

`CN(C)c1ccc([N+](=O)[O-])cn1` was tested. Which T/C (dose: 12.5 mg/kg/injection, schedule: Q01DX009 (ip), vehicle: saline with Tween-80) did it give?
Its T/C is 95 % of control.

What about the T/C (dose: 25.0 mg/kg/injection, schedule: Q01DX009 (ip), vehicle: saline with Tween-80) of the same compound?
The T/C was 102 % of control.

What about the T/C [3] of the same compound?
Its T/C is 98 % of control.

And the T/C [1]?
The T/C was 98 % of control.

Which T/C (dose: 50.0 mg/kg/injection, schedule: Q01DX001 (ip), vehicle: saline sonified) does the source give for `Cc1ccc(/C(CN2CCOCC2)=N\O)cc1` here?
The T/C was 105 % of control.

What about the T/C (dose: 100.0 mg/kg/injection, schedule: Q01DX001 (ip), vehicle: saline sonified) of the same compound?
The T/C was 105 % of control.

And the T/C (dose: 200.0 mg/kg/injection, schedule: Q01DX001 (ip), vehicle: saline sonified)?
Its T/C is 105 % of control.

For `O=C(Nc1ccc2ccccc2c1)c1ccc(Cl)cc1Cl`, which T/C (dose: 75.0 mg/kg/injection, schedule: Q01DX001 (ip), vehicle: saline with Tween-80) is on record?
The T/C was 95 % of control.

What about the T/C (dose: 150.0 mg/kg/injection, schedule: Q01DX001 (ip), vehicle: saline with Tween-80) of the same compound?
Its T/C is 86 % of control.

What about the T/C (dose: 300.0 mg/kg/injection, schedule: Q01DX001 (ip), vehicle: saline with Tween-80) of the same compound?
Its T/C is 90 % of control.

How did the T/C (dose: 1.56 mg/kg/injection, schedule: Q01DX009 (ip), vehicle: saline) turn out when `OCCOCCN1CCN(CCCN2c3ccccc3Sc3ccc(C(F)(F)F)cc32)CC1` was run?
The T/C was 109 % of control.

And the T/C (dose: 12.5 mg/kg/injection, schedule: Q04DX003 (ip), vehicle: saline)?
The T/C was 113 % of control and 120 % of control.

What about the T/C (dose: 50.0 mg/kg/injection, schedule: Q04DX003 (ip), vehicle: saline) of the same compound?
The T/C was 117 % of control.

Source: PubChem BioAssay AID328 (DTP/NCI, 2004)
